Test results taken from US20220009920A1 (GB005, Inc., priority 2020, published 2022).

Key:
Test in all cases: Large panel kinase profiling
Type in all cases: biochemical
Details in all cases: 1 μM test article, 1 mM ATP
SRC = molecular target: T1, SRC (Homo sapiens, UniProt P12931)
T1 construct: AssayQuant Technologies, Inc. (contract assay)
How it was run: (§1)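 Single-point profiling at 1 μM test article used 1 mM ATP. Phosphorylation was tracked by sensor fluorescence increase over time at 30° C., with readings each minute at excitation 360 nm and emission 485 nm.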

CDK2/A2 = molecular target: T2, CDK2/A2 (Homo sapiens, UniProt P24941)
T2 construct: AssayQuant Technologies, Inc. (ran the panel)
How it was run: as §1

CAMK1A = CAMK1A (Homo sapiens, UniProt Q14012)
How it was run: as §1

MARK3 = molecular target: T3, MARK3 (Homo sapiens, UniProt P27448)
T3 construct: AssayQuant Technologies, Inc. (assay service)
How it was run: as §1

PRKAA2/AMPK211 = PRKAA2/AMPK211 (Homo sapiens, UniProt P54646)
How it was run: as §1

HCK = molecular target: T4, HCK (Homo sapiens, UniProt P08631)
T4 construct: AssayQuant Technologies, Inc. (service provider)
How it was run: as §1

TAOK3 = molecular target: T5, TAOK3 (Homo sapiens, UniProt Q9H2K8)
T5 construct: AssayQuant Technologies, Inc. (contract assay)
T5 sequence (Q9H2K8 1-898): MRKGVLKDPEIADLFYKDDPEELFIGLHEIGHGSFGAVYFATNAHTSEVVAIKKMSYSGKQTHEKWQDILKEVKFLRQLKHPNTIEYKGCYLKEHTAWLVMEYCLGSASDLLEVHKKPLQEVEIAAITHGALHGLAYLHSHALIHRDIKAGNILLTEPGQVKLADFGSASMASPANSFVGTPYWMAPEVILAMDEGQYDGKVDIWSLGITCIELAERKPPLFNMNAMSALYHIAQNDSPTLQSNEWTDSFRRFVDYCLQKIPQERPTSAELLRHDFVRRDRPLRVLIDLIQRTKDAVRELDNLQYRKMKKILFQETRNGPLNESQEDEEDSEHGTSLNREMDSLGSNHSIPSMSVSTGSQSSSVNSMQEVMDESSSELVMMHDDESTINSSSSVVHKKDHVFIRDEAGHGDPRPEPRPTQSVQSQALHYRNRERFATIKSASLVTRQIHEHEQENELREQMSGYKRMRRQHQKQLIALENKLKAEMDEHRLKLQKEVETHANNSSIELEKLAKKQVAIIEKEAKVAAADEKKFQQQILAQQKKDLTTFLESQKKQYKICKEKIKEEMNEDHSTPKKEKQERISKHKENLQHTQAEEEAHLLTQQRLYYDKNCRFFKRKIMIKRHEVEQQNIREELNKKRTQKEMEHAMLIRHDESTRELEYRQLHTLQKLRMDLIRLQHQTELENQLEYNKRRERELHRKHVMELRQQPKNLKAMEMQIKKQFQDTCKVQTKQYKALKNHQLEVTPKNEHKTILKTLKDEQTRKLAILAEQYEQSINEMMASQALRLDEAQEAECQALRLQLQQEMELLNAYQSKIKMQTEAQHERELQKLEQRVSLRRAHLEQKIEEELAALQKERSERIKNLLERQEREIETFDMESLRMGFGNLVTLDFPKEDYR
How it was run: as §1

AURKC/AURC = molecular target: T6, AURKC/AURC (Homo sapiens, UniProt Q9UQB9)
T6 sequence (Q9UQB9 1-309): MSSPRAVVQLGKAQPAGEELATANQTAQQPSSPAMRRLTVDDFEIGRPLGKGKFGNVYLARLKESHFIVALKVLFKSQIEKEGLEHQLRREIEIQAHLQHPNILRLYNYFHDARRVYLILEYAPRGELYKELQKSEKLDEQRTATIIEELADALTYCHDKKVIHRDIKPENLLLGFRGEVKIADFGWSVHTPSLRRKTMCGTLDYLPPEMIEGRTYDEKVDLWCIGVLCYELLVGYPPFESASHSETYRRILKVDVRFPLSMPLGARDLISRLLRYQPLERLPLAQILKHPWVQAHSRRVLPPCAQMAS
How it was run: as §1

CSNK2A2/CK2A2 = molecular target: T7, CSNK2A2/CK2A2 (Homo sapiens, UniProt P19784)
T7 construct: AssayQuant Technologies, Inc. (service laboratory)
How it was run: as §1

NEK4 = molecular target: T8, NEK4 (Homo sapiens, UniProt P51957)
T8 construct: AssayQuant Technologies, Inc. (assay service)
How it was run: as §1

T7 sequence (P19784 whole entry): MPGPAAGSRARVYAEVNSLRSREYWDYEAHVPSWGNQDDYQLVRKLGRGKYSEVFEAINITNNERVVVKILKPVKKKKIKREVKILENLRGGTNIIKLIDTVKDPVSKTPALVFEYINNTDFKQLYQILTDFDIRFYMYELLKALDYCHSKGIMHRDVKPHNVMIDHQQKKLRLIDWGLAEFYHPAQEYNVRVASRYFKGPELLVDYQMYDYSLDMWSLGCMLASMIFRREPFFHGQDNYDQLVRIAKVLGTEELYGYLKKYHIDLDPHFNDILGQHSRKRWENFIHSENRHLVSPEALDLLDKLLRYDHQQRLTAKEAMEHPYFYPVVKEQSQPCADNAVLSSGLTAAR
T8 sequence (P51957 whole entry, species assumed): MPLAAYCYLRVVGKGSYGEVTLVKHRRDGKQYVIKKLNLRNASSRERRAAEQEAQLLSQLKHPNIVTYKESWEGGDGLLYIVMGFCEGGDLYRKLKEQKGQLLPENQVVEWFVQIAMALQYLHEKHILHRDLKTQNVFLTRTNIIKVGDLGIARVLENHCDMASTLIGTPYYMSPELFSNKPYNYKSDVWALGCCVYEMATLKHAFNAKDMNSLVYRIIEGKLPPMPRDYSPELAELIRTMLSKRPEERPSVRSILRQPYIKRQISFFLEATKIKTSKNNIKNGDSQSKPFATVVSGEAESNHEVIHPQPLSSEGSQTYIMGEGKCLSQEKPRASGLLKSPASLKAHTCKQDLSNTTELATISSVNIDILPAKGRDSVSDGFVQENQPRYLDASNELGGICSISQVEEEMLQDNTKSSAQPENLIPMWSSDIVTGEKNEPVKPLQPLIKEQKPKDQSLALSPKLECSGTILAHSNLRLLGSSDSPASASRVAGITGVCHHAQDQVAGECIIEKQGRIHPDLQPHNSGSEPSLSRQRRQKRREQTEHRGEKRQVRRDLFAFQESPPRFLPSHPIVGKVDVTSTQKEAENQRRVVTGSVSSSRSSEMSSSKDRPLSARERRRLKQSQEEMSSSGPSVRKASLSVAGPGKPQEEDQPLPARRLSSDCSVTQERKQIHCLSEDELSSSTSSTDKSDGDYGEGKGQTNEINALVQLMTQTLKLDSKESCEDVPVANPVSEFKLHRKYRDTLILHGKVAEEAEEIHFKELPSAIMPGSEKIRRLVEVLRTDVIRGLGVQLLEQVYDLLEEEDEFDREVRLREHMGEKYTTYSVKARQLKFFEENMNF
T3 sequence (P27448 whole entry, species assumed): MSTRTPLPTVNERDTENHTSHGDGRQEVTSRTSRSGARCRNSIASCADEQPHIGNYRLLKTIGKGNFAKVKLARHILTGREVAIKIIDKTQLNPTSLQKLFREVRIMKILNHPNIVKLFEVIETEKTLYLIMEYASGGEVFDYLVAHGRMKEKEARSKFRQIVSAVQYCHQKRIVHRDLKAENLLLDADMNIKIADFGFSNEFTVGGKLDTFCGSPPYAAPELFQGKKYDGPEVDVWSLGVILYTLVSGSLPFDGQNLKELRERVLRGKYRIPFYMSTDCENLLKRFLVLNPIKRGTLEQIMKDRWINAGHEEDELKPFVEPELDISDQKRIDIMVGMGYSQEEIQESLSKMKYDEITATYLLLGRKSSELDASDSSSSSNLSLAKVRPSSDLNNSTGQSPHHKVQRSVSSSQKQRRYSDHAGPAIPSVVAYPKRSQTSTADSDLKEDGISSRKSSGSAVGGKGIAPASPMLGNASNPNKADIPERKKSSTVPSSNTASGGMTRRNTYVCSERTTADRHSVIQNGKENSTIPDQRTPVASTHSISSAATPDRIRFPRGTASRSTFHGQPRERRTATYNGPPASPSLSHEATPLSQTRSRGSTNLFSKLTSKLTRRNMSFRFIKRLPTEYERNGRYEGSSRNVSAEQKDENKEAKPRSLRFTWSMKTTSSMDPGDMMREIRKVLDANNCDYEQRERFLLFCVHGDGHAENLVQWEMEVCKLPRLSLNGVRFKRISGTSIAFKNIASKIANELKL
T1 sequence (P12931 whole entry, species assumed): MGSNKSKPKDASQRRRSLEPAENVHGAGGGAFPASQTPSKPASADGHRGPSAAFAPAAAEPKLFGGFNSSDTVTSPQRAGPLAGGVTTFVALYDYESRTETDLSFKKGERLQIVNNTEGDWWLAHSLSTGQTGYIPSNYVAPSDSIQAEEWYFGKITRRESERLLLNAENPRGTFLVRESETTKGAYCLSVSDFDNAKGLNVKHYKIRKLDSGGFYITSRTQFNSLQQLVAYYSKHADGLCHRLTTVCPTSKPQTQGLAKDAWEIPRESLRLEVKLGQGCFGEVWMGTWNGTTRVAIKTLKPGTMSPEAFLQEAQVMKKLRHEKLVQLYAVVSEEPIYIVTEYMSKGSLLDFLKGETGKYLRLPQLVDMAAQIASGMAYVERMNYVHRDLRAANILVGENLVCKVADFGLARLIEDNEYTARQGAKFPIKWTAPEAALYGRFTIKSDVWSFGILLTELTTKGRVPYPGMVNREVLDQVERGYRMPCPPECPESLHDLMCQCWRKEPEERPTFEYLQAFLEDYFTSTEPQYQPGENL
Sequence of CAMK1A (Q14012 whole entry): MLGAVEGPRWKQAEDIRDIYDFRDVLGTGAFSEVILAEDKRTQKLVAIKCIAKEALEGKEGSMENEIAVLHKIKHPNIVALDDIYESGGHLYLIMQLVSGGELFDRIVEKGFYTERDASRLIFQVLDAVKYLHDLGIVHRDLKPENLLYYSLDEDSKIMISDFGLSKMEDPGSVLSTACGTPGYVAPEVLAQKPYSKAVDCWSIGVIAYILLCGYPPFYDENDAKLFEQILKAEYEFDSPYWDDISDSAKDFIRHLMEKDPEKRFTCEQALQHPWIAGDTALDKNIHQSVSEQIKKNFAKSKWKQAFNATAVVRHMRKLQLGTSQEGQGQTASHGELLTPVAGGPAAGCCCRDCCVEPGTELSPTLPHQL
Sequence of PRKAA2/AMPK211 (P54646 whole entry, species assumed): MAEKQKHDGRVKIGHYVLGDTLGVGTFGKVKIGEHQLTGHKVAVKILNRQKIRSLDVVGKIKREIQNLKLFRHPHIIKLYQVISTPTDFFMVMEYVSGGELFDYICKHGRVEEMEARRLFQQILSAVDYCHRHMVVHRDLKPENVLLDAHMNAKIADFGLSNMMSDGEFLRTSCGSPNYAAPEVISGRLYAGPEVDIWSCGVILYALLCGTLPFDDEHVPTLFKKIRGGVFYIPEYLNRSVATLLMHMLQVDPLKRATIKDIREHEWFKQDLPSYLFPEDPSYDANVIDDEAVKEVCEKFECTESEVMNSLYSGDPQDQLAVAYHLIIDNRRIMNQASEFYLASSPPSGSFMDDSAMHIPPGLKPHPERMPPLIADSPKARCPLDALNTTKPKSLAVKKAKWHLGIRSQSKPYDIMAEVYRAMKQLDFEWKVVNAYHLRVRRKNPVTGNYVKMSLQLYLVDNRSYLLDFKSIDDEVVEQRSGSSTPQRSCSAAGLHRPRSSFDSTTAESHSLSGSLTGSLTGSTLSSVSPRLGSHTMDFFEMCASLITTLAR
Sequence of PRKAA2/AMPK211 (Q9Y478 whole entry partner, species assumed): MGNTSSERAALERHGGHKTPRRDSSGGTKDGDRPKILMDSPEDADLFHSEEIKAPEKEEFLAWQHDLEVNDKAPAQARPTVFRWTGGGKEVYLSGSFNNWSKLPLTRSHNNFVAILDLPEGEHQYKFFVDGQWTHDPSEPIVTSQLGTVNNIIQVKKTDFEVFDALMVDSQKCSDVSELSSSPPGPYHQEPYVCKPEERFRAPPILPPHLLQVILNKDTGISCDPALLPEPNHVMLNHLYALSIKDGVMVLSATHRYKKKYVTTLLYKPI
Sequence of PRKAA2/AMPK211 (P54619 whole entry partner, species assumed): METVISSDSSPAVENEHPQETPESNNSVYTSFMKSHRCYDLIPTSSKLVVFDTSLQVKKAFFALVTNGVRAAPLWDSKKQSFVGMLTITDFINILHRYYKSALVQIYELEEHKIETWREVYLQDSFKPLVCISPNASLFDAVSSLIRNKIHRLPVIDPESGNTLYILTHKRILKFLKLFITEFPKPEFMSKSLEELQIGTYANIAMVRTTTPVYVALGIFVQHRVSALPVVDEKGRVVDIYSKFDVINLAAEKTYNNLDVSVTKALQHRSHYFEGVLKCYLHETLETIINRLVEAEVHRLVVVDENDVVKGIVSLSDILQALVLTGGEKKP
T4 sequence (P08631 whole entry, species assumed): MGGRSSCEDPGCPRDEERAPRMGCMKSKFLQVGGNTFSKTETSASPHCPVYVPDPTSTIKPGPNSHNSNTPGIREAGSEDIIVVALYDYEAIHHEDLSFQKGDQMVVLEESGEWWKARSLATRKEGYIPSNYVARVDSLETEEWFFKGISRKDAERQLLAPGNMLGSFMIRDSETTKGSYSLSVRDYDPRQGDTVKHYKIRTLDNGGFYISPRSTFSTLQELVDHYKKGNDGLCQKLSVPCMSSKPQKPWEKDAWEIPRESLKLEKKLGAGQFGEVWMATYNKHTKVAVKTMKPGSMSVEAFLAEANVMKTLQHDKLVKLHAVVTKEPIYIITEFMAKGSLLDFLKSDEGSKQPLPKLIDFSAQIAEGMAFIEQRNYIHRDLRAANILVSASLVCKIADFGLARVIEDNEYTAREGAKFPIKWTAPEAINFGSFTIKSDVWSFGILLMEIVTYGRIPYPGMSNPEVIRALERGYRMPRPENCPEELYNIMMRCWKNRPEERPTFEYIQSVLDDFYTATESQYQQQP

| SMILES | inhibition at 1 µM (SRC) | inhibition at 1 µM (CDK2/A2) | inhibition at 1 µM (CAMK1A) | inhibition at 1 µM (MARK3) | inhibition at 1 µM (PRKAA2/AMPK211) | inhibition at 1 µM (HCK) | inhibition at 1 µM (TAOK3) | inhibition at 1 µM (AURKC/AURC) | inhibition at 1 µM (CSNK2A2/CK2A2) | inhibition at 1 µM (NEK4) |
| --- | --- | --- | --- | --- | --- | --- | --- | --- | --- | --- |
| C=CC(=O)N1CCCC(c2c(F)cc(C(N)=O)c3[nH]c4c(c23)CCCCC4)C1 (single isomer, unassigned) [Compound 5-6] | -28.3% | -6.3% | 24.4% | 1.6% | -24.4% | 6.8% | 14.1% | -8.9% | 11.4% | -5.3% |
| C=CC(=O)N1CCC[C@@H](c2c(F)cc(C(N)=O)c3[nH]c4c(c23)CCC4)C1 [Compound 10-2, (S)-8-(1-acryloylpiperidin-3-yl)-7-fluoro-1,2,3,4-tetrahydrocyclo-penta[b]indole-5-carboxamide] | -1.8% | 2.3% | 7.9% | -90.5% | 36.6% | -5.8% | -2.9% | 16.7% | -144% | -11.1% |
| C=CC(=O)N1CCC[C@@H](c2c(F)cc(C(N)=O)c3[nH]c4c(c23)CC2(CC4)CC2)C1 [Compound 6-2, (S)-5-(1-acryloylpiperidin-3-yl)-6-fluoro-1,2,4,9-tetrahydrospiro[carbazole-3,1′-cyclopropane]-8-carboxamide] | -7% | 5.6% | 34.5% | -10.6% | 28.8% | 2.8% | 1.6% | -2% | -141% | -6.5% |
